# Reference: US5461049A, “Amide tetrazole ACAT inhibitors” (Warner-Lambert Company, priority 1994, dated 1995)
# Key:
# [1] = APCC in vivo screen: change in total cholesterol in rats on high fat, high cholesterol diet; set-up: species or system male Sprague-Dawley rats; details: Rattus norvegicus, po, 16 h; 30 mg/kg by gavage, single dose at 4 PM, sacrificed at 8 AM; 5.5% peanut oil, 1.5% cholesterol, 0.5% cholic acid diet; vs control animals given vehicle and diet only; read-out: APCC (% change in TC)
# Text: In one in vivo screen designated APCC, male Sprague-Dawley rats (200-225 g body weight) were randomly divided into treatment groups and dosed at 4 PM with either vehicle (CMC/Tween) or suspensions of invention compounds in vehicle. The normal chow diet was then replaced with a high fat, high cholesterol diet (5.5% peanut oil, 1.5% cholesterol, and 0.5% cholic acid). The rats consumed this diet ad libitum during the night and were sacrificed at 8 AM to obtain blood samples for cholesterol analysis using standard procedures. Statistical differences between mean cholesterol values for the same vehicle were determined using analysis of variance followed by Fisher's least significant test. The results of this trial for representative compounds of the present invention also appear in Table I as the percent change in total cholesterol (%TC) from control animals given vehicle and diet only. All compounds in the APCC test reported in Table 1 were administered by garage at 30 mg/kg.
# [2] = biological target: T1, acyl-CoA: cholesterol acyltransferase (ACAT) (Rattus norvegicus, UniProt Q7TQM4); test: ACAT inhibition in vitro (LAI): radiolabeled cholesterol oleate formed from radiolabeled oleic acid in rat liver microsomes; format: biochemical; details: concentration required to inhibit the activity of the enzyme by 50%
# T1 construct: tissue preparation containing rat liver microsomes; from tissue; host or cells: rat liver microsomes
# T1 sequence (Q7TQM4 1-524): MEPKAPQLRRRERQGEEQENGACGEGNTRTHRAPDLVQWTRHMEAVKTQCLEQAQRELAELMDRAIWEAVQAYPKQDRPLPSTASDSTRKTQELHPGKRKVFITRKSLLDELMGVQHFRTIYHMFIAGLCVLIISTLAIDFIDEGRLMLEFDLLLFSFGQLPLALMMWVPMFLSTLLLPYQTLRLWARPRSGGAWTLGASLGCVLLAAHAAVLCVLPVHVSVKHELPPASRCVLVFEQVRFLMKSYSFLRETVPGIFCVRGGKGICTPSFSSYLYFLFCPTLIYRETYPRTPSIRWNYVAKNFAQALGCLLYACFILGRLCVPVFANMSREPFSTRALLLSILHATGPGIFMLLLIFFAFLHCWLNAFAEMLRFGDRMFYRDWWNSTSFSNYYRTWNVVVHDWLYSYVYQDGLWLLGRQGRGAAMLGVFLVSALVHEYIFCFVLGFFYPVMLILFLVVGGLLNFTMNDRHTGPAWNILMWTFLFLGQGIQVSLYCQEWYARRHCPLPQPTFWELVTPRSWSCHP
# Experimental: The ability of representative compounds of the present invention to inhibit ACAT was measured using an in vitro test more fully described in F. J. Field and R. G. Salone, Biochemica et Biophysica Acta, 712:557-570 (1982). The test assesses the ability of a test compound to inhibit the acylation of cholesterol by oleic acid by measuring the amount of radiolabeled cholesterol oleate formed from radiolabeled oleic acid in a tissue preparation containing rat liver microsomes (designated LAI).
SMILES,IC50 [2] [nM],change in vivo at 30 mg/kg [1] [%]
"CCCCCCCCCCCCn1nnc(C(C(=O)Nc2c(C(C)C)cccc2C(C)C)n2ccnc2)n1 (racemic) [Example 5, (±)-N-(2,6-Diisopropylphenyl)-2-(2-dodecyl-2H-tetrazol-5-yl) -2-imidazol-1-yl-acetamide]",215,-46
"CCCCCCCCCCCCn1nnc(C(C(=O)Nc2c(C(C)C)cccc2C(C)C)N2CCN(C)CC2)n1 (racemic) [Example 6, (±)-N-(2,6-Diisopropylphenyl)-2-(2-dodecyl-2-tetrazol-5-yl)-2-(4-methyl-piperazin-1-yl)-acetamide]",86,-51
"CCCCCCCCCCCCn1nnc(C(C(=O)Nc2c(C(C)C)cccc2C(C)C)N(CCO)CCO)n1 (racemic) [Example 8, (±)-2-[Bis-(2-hydroxyethyl)-amino]-N-(2,6-diisopropylphenyl) -2-(2-dodecyl-2H-tetrazol-5-yl)-acetamide]",390,-11
"CCCCCCCCCCCCn1nnc(C(N)C(=O)Nc2c(C(C)C)cccc2C(C)C)n1 (racemic) [Example 10, (±)-2-Amino-N-(2,6-diisopropylphenyl)-2-(2-dodecyl-2H-tetrazol-5-yl)-acetamide]",94,-51
"CCCCCCCCCCCCn1nnc(C(C(=O)Nc2c(OC)cc(OC)cc2OC)N2CCCC2)n1 (racemic) [Example 17, (±)-N-(2,4,6-trimethoxyphenyl) -2-(2-dodecyl-2H-tetrazol-5-yl)-2-pyrrolidin-1-yl-acetamide]",40,-67
"CCCCCCCCCCCCn1nnc(C(C(=O)Nc2c(C(C)C)cc(C(C)C)cc2C(C)C)N2CCCC2)n1 (racemic) [Example 18, (±)-N-2,4,6-triisopropylphenyl-2-(2-dodecyl-2H-tetrazol-5-yl)-2-pyrrolidin-1-yl-acetamide]",222,-20
"CCCCCCCCCCCCn1nnc(C(NC(C)=O)C(=O)Nc2c(C(C)C)cccc2C(C)C)n1 (racemic) [Example 32, (±)-N-(2,6-diisopropylphenyl)-2-(2-dodecyl-2H-tetrazol-5-yl)-2-acetylamino-acetamide]",> 1000,-9
"CCCCCCCCCCCCn1nnc(C(NC2CCCCC2)C(=O)Nc2c(C(C)C)cccc2C(C)C)n1 (racemic) [Example 36, (±)-N-(2,6-diisopropylphenyl)-2-(2-dodecyl-2H-tetrazol-5-yl)-2-cyclohexylamino-acetamide]",212,
"CCCCCCCCCCCCn1nnc(C(=O)C(=O)Nc2c(C(C)C)cccc2C(C)C)n1 [Example 11, N-(2,6-diisopropylphenyl)-2-(2-dodecyl-2H-tetrazol-5-yl)-2-oxo-acetamide]",135,-50
"CCCCCCCCCCCCn1nnc(/C(=N/OC)C(=O)Nc2c(C(C)C)cccc2C(C)C)n1 [Example 14, Z-N-(2,6-diisopropylphenyl) -2-(2-dodecyl-2H-tetrazol-5-yl)-2-methoxyiminoacetamide]",40,-19
"CCCCCCCCCCCCn1nnc(/C(=N\OCC)C(=O)Nc2c(C(C)C)cccc2C(C)C)n1 [Example 24, E-isomer of N-(2,6-diisopropylphenyl)-2-(2-dodecyl-2H-tetrazol-5-yl)-2-ethoxyimino-acetamide]",49,-31
"CCCCCCCCCCCCn1nnc(C(=NN)C(=O)Nc2c(C(C)C)cccc2C(C)C)n1 [Example 27, N-(2,6-diisopropylphenyl)-2-(2 dodecyl-2H-tetrazol-5-yl)-2-hydrazono-acetamide]",510,
"CCCCCCCCCCCCn1nnc(C(=NNc2ccccc2)C(=O)Nc2c(C(C)C)cccc2C(C)C)n1 [Example 28, N-(2,6-diisopropylphenyl)-2-(2-dodecyl-2H-tetrazol-5-yl)-2-phenylhydrazono-acetamide]",150,-18
"CCCCCCCCCCCCn1nnc(C(=NN(C)C)C(=O)Nc2c(C(C)C)cccc2C(C)C)n1 [Example 29, N-(2,6-diisopropylphenyl)-2-(2-dodecyl-2H-tetrazol-5-yl)-2-dimethylhydrazono-acetamide]",43,-70

# More lines, in order of falling IC50 [2], values ahead:
IC50 [2] [nM],SMILES,change in vivo at 30 mg/kg [1] [%]
40,"CCCCCCCCCCCCn1nnc(C(C(=O)Nc2c(C(C)C)cccc2C(C)C)N(C)C)n1 (racemic) [Example 9, (±)-N-(2,6-Diisopropylphenyl)-2-dimethylamino-(2-dodecyl-2H-tetrazol-5-yl)-acetamide]",-40
32,"CCCCCCCCCCCCn1nnc(C(C(=O)Nc2c(C(C)C)cccc2C(C)C)N(CC)CC)n1 (racemic) [Example 7, (±)-2-Diethylamino-N-(2,6-diisopropylphenyl) -2-(2-dodecyl-2H-tetrazol-5-yl)-acetamide]",-28
29,"CCCCCCCCCCCCn1nnc(C(=NO)C(=O)Nc2c(C(C)C)cccc2C(C)C)n1 [Example 12, N-(2,6-diisopropylphenyl)-2-(2-dodecyl-2H-tetrazol-5-yl)-2-hydroxyimino-acetamide]",
28,"CCCCCCCCCCCCn1nnc(/C(=N\OC)C(=O)Nc2c(OC)cc(OC)cc2OC)n1 [Example 15, E-2-(2-Dodecyl-2H-tetrazol-5-yl)-2-methoxyimino -N-(2,4,6-trimethoxyphenyl)-acetamide]",-70
25,"CCCCCCCCCCCCn1nnnc1/C(=N\OCC)C(=O)Nc1c(C(C)C)cccc1C(C)C [Example 41, E-N-(2,6-Diisopropylphenyl)-2-(1-dodecyl-1H-tetrazol-5-yl)-2-ethoxyimino-acetamide]",-65
18,"CCCCCCCCCCCCn1nnc(C(C(=O)Nc2c(C(C)C)cccc2C(C)C)N2CCOCC2)n1 (racemic) [Example 2, (±)-N-(2,6-Diisopropylphenyl)-2-(2-dodecyl-2H-tetrazol-5-yl)-2-morpholino-4-yl-acetamide]",-57
15,"CCCCCCCCCCCCn1nnc(C(C(=O)Nc2c(C(C)C)cccc2C(C)C)N2CCCCC2)n1 (racemic) [Example 3, (±)-N-(2,6-Diisopropylphenyl)-2-(2-dodecyl-2H-tetrazol-5-yl)-2-piperidin-1-yl-acetamide]",-47
12,"CCCCCCCCCCCCn1nnc(C(C(=O)Nc2c(C(C)C)cccc2C(C)C)N2CCSCC2)n1 (racemic) [Example 1, (±)-N-(2,6-diisopropylphenyl) -2-(2-dodecyl-2H-tetrazol-5-yl) -2-thiomorpholin-4-yl-acetamide]",-56
9,"CCCCCCCCCCCCn1nnc(C(C(=O)Nc2c(C(C)C)cccc2C(C)C)N2CCCC2)n1 (racemic) [Example 4, (±) -N-(2,6-Diisopropylphenyl)-2-(2-dodecyl-2H-tetrazol-5-yl) -2-pyrrolidinyl-1-yl-acetamide]",-59
3,"CCCCCCCCCCC(C)n1nnc(/C(=N\OC)C(=O)Nc2c(C(C)C)cccc2C(C)C)n1 (stereo not shown) [Example 16, E-N-(2,6-Diisopropylphenyl)-2-(2-(1-methylundecyl) -2H-tetrazol-5-yl)-2-methoxyimino-acetamide]",-67
2,"CCCCCCCCCCCCn1nnc(/C(=N\OC)C(=O)Nc2c(C(C)C)cccc2C(C)C)n1 [Example 13, E-N-(2,6-Diisopropylphenyl)-2-(2-dodecyl-2H-tetrazol-5-yl)-2-methoxyimino-acetamide]",-43
2,"CCCCCCCCCCCCn1nnc(/C(=N/OCC)C(=O)Nc2c(C(C)C)cccc2C(C)C)n1 [Example 23, Z-N-(2,6-diisopropylphenyl) -2-(2-dodecyl-2H-tetrazol-5-yl)-2-ethoxyimino-acetamide]",-74
